Values of other authors in patent US20090253620A1, “METHODS AND COMPOSITIONS FOR TREATING GASTROINTESTINAL RADIOSENSITITIVITY IN A SUBJECT” (WASHINGTON UNIVERSITY IN ST. LOUIS, priority 2005, published 2009).

Columns and labels:
[1] = test system: intestinal mesenchymal cells; conditions: CONV-R wt mice
mice = conditions: CONV-R wt mice

Question: Which results are given for Fgf-2: fibroblast growth factor-2?
Answer: TBI-induced intestinal mesenchymal apoptosis [1]: attenuates; TBI-associated mortality (mice): decreases
